The text below walks through data of ChEMBL document CHEMBL6109158, “Discovery of Novel Bifunctional Agents as Potent Androgen Receptor Antagonists and Degraders for the Treatment of Enzalutamide-Resistant Prostate Cancer” (J Med Chem, 2025).

Data set [1] concerns CWR22R. The experiment in a line: cells. The settings on record: Homo sapiens, 22Rv1, […]. It is filed as functional, cell-based.
Description: Antiproliferative activity against human 22Rv1 cells assessed as inhibition of cell growth incubated for 7 days by celltiter-glo assay
Data set [2] relates to LNCaP C4-2. The experiment in a line: cells. The format is functional, cell-based. The settings on record: Homo sapiens.
Description: Antiproliferative activity against human C4-2 cells assessed as inhibition of cell growth incubated for 7 days by celltiter-glo assay
Data set [3] can be described thus: cells. The settings on record: Homo sapiens, Enzalutamide-resistant C4-2B. It is filed as functional, cell-based.
Data set [4] concerns LNCaP. The experiment in a line: cells. It is filed as functional, cell-based. The settings on record: Homo sapiens.
Description: Antiproliferative activity against human LNCaP cells assessed as inhibition of cell growth incubated for 7 days by celltiter-glo assay
Data set [5] can be described thus: in vivo. Particulars: male, C57BL/6, mouse, iv, 1 mg/kg.
Description: Half life in male C57BL/6 mouse at 1 mg/kg, iv
Data set [6] is described as follows: in vivo. The settings on record: male, C57BL/6, mouse, iv, 1 mg/kg. The source holds these as a separate data set.
Description: Clearance in male C57BL/6 mouse at 1 mg/kg, iv
The nature of data set [7]: in vivo. The settings on record: male, C57BL/6, mouse, iv, 1 mg/kg. This is another data set of the same source.
Data set [8] can be described thus: in vivo. Particulars: male, C57BL/6, mouse, iv, 1 mg/kg. The source holds these as a separate data set.
Description: C0 in male C57BL/6 mouse at 1 mg/kg, iv
The nature of data set [9]: in vivo. Particulars: male, C57BL/6, mouse, iv, 1 mg/kg. The source holds these as a separate data set.
Description: Volume of distribution at steady state in male C57BL/6 mouse at 1 mg/kg, iv
Data set [10] can be described thus: in vivo. Particulars: male, C57BL/6, mouse, brain, iv, 1 mg/kg.
Description: Ratio of drug concentration in male C57BL/6 mouse brain to plasma at 1 mg/kg, iv measured after 1 hr
The nature of data set [11]: in vitro. The settings on record: mouse, microsomes.
Description: Metabolic stability in mouse liver microsomes assessed as half life
A short description of data set [12]: in vitro. The settings on record: mouse, microsomes. The source holds these as a separate data set.
The nature of data set [13]: in vitro. The settings on record: human, microsomes.
Data set [14] is described as follows: in vitro. Particulars: human, microsomes. This is another data set of the same source.

With `N#Cc1ccc(O[C@H]2CC[C@H](NC(=O)c3ccc(N4CCC(CN5CCN(c6cc7c(cc6F)C(=O)N(C6CCC(=O)NC6=O)C7=O)CC5)CC4)nn3)CC2)cc1Cl` (some centres not stated) [BAVDEGALUTAMIDE], the IC50 (usually the midpoint of a concentration-inhibition curve) in [1] was greater than 100 µM.

As to `COc1cc(NC(=O)[C@@](C)(O)CN2CC3CCC(C2)N3c2ccc(C#N)cc2)ccc1C#N`, the concentration for half-maximal inhibition (IC50) in data set [1] was found to be 2.23 µM.

For `C[C@]12CC[C@H](O)CC1=CC[C@@H]1[C@@H]2CC[C@]2(C)C(n3cnc4ccccc43)=CC[C@@H]12` [GALETERONE], the midpoint of inhibition in data set [1], the IC50, lay at 12 µM.

With `CC(O)c1cc(C(=O)N[C@@H](C)Cn2ccc(-c3ccc(C#N)c(Cl)c3)n2)n[nH]1` (some centres not stated) [DAROLUTAMIDE], half-maximal inhibition in data set [1] (IC50) was put at 31.2 µM.

Take `C[C@](O)(CN1CC2CCC(C1)N2c1ccc(C#N)cc1)C(=O)Nc1ccc(C#N)c(Cl)c1`: the IC50 in data set [2] is 1.19 µM; in data set [3] it was 5.23 µM; in [4], 1.57 µM. Moreover, the half-life (as a rule, the time needed for the level to fall by half in the phase considered) in data set [5] was 244 min; in data set [11], 12.2 min; in data set [13], 9.95 min. The clearance (as a rule, the rate of elimination divided by the concentration) in data set [6] was determined as 7.09 mL/min/kg. Also, the AUC(0-t) (in general, exposure summed from dosing to a finite time, without extrapolation to infinity) in data set [7] is 2330 ng·h/mL. In [8], this molecule yielded a C0 of 1420 ng/mL. In [9], the Vd (as a rule, the apparent volume that relates the amount in the body to the concentration in plasma or blood) was determined as 1.87 L/kg. Besides, the Kp at 1 h in data set [10] turned out to be 0.55. The microsomal CLint (commonly a measure of how fast metabolising enzymes remove a compound, apart from limits set by blood flow) in data set [12] came to 114 µL/min/mg; in data set [14] it was 139 µL/min/mg.

`COc1c(C#N)ccc(NC(=O)[C@@](C)(O)CN2CC3CCC(C2)N3c2ccc(C#N)cc2)c1F`: the IC50 in [1] worked out at 5.3 µM.

In [1], `C[C@](O)(CN1CC2CCC(C1)N2c1ccc(F)cc1)C(=O)Nc1ccc(C#N)c(C(F)(F)F)c1` had an IC50 of 12.9 µM.

Molecule `C[C@](O)(CN1CC2CCC(C1)N2c1ccc(C#N)cc1)C(=O)Nc1ccc([N+](=O)[O-])c(C(F)(F)F)c1` displayed an IC50 in data set [1] of 1.65 µM.

Molecule `C[C@](O)(CN1CC2CCC(C1)N2Cc1ccc(C#N)cc1)C(=O)Nc1ccc(C#N)c(C(F)(F)F)c1` registered a half-maximal inhibitory concentration (IC50) in [1] of 20.5 µM.

As for `C[C@](O)(CN1CC2CCC(C1)N2c1ncc(C#N)cn1)C(=O)Nc1ccc(C#N)c(C(F)(F)F)c1`, the IC50 in data set [1] amounted to 4.05 µM.

In [1], `CNC(=O)c1ccc(N2C(=S)N(c3cnc(C#N)c(C(F)(F)F)c3)C(=O)C23CCC3)cc1F` [APALUTAMIDE] registered an IC50 greater than 100 µM.

`C[C@](O)(CN1C[C@@H]2C[C@H]1CN2c1ccc(C#N)cc1)C(=O)Nc1ccc(C#N)c(C(F)(F)F)c1` came in with an IC50 in [1] of 10 µM.

In data set [1], `COc1cc(C#N)ccc1N1C2CCC1CN(C[C@](C)(O)C(=O)Nc1ccc(C#N)c(C(F)(F)F)c1)C2` yielded a 50% inhibitory concentration (IC50) of 4.12 µM.

In data set [1], `C[C@](O)(CN1CC2CCC(C1)N2c1cnc(C#N)nc1)C(=O)Nc1cnc(C#N)c(C(F)(F)F)c1` displayed an IC50 of 15.8 µM.

On to `C[C@](O)(CN1CC2CCC(C1)N2c1ccc(C#N)cn1)C(=O)Nc1ccc(C#N)c(C(F)(F)F)c1`, for which 2.28 µM corresponded to half-maximal inhibition in data set [1] (IC50).

`C[C@](O)(CN1CC2CCC(C1)N2c1ccc(C#N)cc1)C(=O)Nc1cnc(C#N)c(Cl)c1` gave an IC50 in [1] of 1.68 µM. Besides, in [5], the half-life was 96.6 min. Besides, the clearance in data set [6] was determined as 16.2 mL/min/kg. The molecule also yielded an AUC(0-t) in data set [7] of 1030 ng·h/mL. In data set [8], this molecule came in with a C0 of 1140 ng/mL. The same molecule registered a Vd in data set [9] of 1.42 L/kg. Besides, the Kp at 1 h in data set [10] stood at 0.33.

As for `C[C@](O)(CN1CC2CCC(C1)N2c1cnc(C#N)nc1)C(=O)Nc1ccc(C#N)c(C(F)(F)F)c1`, in data set [1], the midpoint of inhibition, the IC50, lay at 5.24 µM.

`C[C@](O)(Cn1ccc2cc(F)ccc21)C(=O)Nc1ccc(C#N)c(C(F)(F)F)c1` showed a concentration for half-maximal inhibition (IC50) in data set [1] of 3.53 µM.

In [1], `Cc1cc(C#N)ccc1N1C2CCC1CN(C[C@](C)(O)C(=O)Nc1ccc(C#N)c(C(F)(F)F)c1)C2` had an IC50 of 3.08 µM.
